Assay results: PMC5218480 (PLoS ONE, 2017)

Test system: MV-4-11 cells
Experiment: Gene expression microarray analysis (Affymetrix PrimeView) and GSEA
Type: cell-based, human
Design: RFU PODN (11730768_x_at) / Fold change /veh PODN (11730768_x_at) / RFU LINC00158 (11744669_a_at) / Fold change /veh LINC00158 (11744669_a_at) / RFU DUSP10 (11751237_a_at) / Fold change /veh DUSP10 (11751237_a_at) / RFU ID3 (11757404_x_at) / Fold change /veh ID3 (11757404_x_at) / RFU PLEKHG5 (11737974_s_at) / Fold change /veh PLEKHG5 (11737974_s_at) / RFU LRRC4B (11730491_at) / Fold change /veh LRRC4B (11730491_at) / RFU GIMAP4 (11747438_a_at) / Fold change /veh GIMAP4 (11747438_a_at) / RFU KRT8 (11758183_x_at) / Fold change /veh KRT8 (11758183_x_at) / RFU CNN1 (11734310_a_at) / Fold change /veh CNN1 (11734310_a_at) / RFU VPS37D (11726825_at) / Fold change /veh VPS37D (11726825_at) / RFU C10orf10 (11716522_x_at) / Fold change /veh C10orf10 (11716522_x_at) / RFU KIR2DL2 /// KIR2DL4 /// KIR2DL5A /// KIR2DL5B /// KIR2DS1 /// KIR2DS2 /// KIR2DS3 /// KIR2DS4 /// KIR3DL3 /// KIR3DL3 /// KIR3DS1 (11738374_at) / Fold change /veh KIR2DL2 /// KIR2DL4 /// KIR2DL5A /// KIR2DL5B /// KIR2DS1 /// KIR2DS2 /// KIR2DS3 /// KIR2DS4 /// KIR3DL3 /// KIR3DL3 /// KIR3DS1 (11738374_at) / RFU C1QL1 (11718748_at) / Fold change /veh C1QL1 (11718748_at) / RFU TMPRSS4 (11747572_a_at) / Fold change /veh TMPRSS4 (11747572_a_at) / RFU HAMP (11756126_x_at) / Fold change /veh HAMP (11756126_x_at) / RFU RNFT2 (11725882_a_at) / Fold change /veh RNFT2 (11725882_a_at) / RFU NR4A2 (11747474_a_at) / Fold change /veh NR4A2 (11747474_a_at) / RFU ABCC12 (11746883_a_at) / Fold change /veh ABCC12 (11746883_a_at) / RFU TMEM136 (11760407_x_at) / Fold change /veh TMEM136 (11760407_x_at) / RFU CLDN22 /// WWC2 (11732394_at) / Fold change /veh CLDN22 /// WWC2 (11732394_at) / RFU HLA-DPB1 (11760878_x_at) / Fold change /veh HLA-DPB1 (11760878_x_at) / RFU SPINT1 (11716480_a_at) / Fold change /veh SPINT1 (11716480_a_at) / RFU GAP43 (11754022_s_at) / Fold change /veh GAP43 (11754022_s_at) / RFU A4GNT (11735810_at) / Fold change /veh A4GNT (11735810_at) / RFU PRB3 (11715151_x_at) / Fold change /veh PRB3 (11715151_x_at) / RFU TUBB4B (11761932_at) / Fold change /veh TUBB4B (11761932_at) / RFU CAPN14 (11732068_a_at) / Fold change /veh CAPN14 (11732068_a_at) / RFU TMCC2 (11721928_a_at) / Fold change /veh TMCC2 (11721928_a_at) / RFU IRGQ (11745062_a_at) / Fold change /veh IRGQ (11745062_a_at) / RFU FAM174B (11720279_a_at) / Fold change /veh FAM174B (11720279_a_at) / RFU TMPRSS4 (11748680_a_at) / Fold change /veh TMPRSS4 (11748680_a_at) / RFU FAM212B (11763350_a_at) / Fold change /veh FAM212B (11763350_a_at) / RFU PLEKHG5 (11743358_a_at) / Fold change /veh PLEKHG5 (11743358_a_at) / RFU ZSCAN30 (11745921_a_at) / Fold change /veh ZSCAN30 (11745921_a_at) / RFU CMKLR1 (11741424_a_at) / Fold change /veh CMKLR1 (11741424_a_at) / RFU LOC101060620 /// MAPK8IP1 (11723275_at) / Fold change /veh LOC101060620 /// MAPK8IP1 (11723275_at) / RFU SPTSSB (11747773_x_at) / Fold change /veh SPTSSB (11747773_x_at) / RFU PRSS12 (11739890_at) / Fold change /veh PRSS12 (11739890_at) / RFU BIN1 (11741810_x_at) / Fold change /veh BIN1 (11741810_x_at) / RFU WNT11 (11732464_a_at) / Fold change /veh WNT11 (11732464_a_at) / RFU C10orf10 (11716521_a_at) / Fold change /veh C10orf10 (11716521_a_at) / RFU C5orf56 (11738089_at) / Fold change /veh C5orf56 (11738089_at) / RFU CYB561 (11721691_x_at) / Fold change /veh CYB561 (11721691_x_at) / RFU ANKRD19P (11752326_a_at) / Fold change /veh ANKRD19P (11752326_a_at) / RFU OR2T12 /// OR2T33 /// OR2T8 (11738714_s_at) / Fold change /veh OR2T12 /// OR2T33 /// OR2T8 (11738714_s_at) / RFU VCAN (11748164_a_at) / Fold change /veh VCAN (11748164_a_at) / RFU JSRP1 (11732532_at) / Fold change /veh JSRP1 (11732532_at) / RFU KRTAP10-11 (11738290_x_at) / Fold change /veh KRTAP10-11 (11738290_x_at) / RFU MYO3A (11730013_a_at) / Fold change /veh MYO3A (11730013_a_at) / RFU EBF3 (11725865_a_at) / Fold change /veh EBF3 (11725865_a_at) / RFU CAMK2N1 (11719241_x_at) / Fold change /veh CAMK2N1 (11719241_x_at) / RFU C5orf56 (11738088_a_at) / Fold change /veh C5orf56 (11738088_a_at) / RFU OLFML3 (11715873_a_at) / Fold change /veh OLFML3 (11715873_a_at) / RFU LOC100653217 /// NTM (11731650_a_at) / Fold change /veh LOC100653217 /// NTM (11731650_a_at) / RFU MAPK11 (11762145_a_at) / Fold change /veh MAPK11 (11762145_a_at) / RFU FIZ1 (11724087_x_at) / Fold change /veh FIZ1 (11724087_x_at) / RFU OASL (11726364_x_at) / Fold change /veh OASL (11726364_x_at) / RFU SOX15 (11748057_x_at) / Fold change /veh SOX15 (11748057_x_at) / RFU CD79A (11719716_a_at) / Fold change /veh CD79A (11719716_a_at) / RFU HIST1H1D (11736915_at) / Fold change /veh HIST1H1D (11736915_at) / RFU CASKIN2 (11723855_a_at) / Fold change /veh CASKIN2 (11723855_a_at) / RFU LOC730098 (11760151_x_at) / Fold change /veh LOC730098 (11760151_x_at) / RFU OR4N2 (11742367_at) / Fold change /veh OR4N2 (11742367_at) / RFU PRRT2 (11749266_a_at) / Fold change /veh PRRT2 (11749266_a_at) / RFU SNX32 (11753110_a_at) / Fold change /veh SNX32 (11753110_a_at) / RFU CDHR5 (11726645_a_at) / Fold change /veh CDHR5 (11726645_a_at) / RFU RCAN1 (11760418_a_at) / Fold change /veh RCAN1 (11760418_a_at) / RFU FAM167A (11723789_a_at) / Fold change /veh FAM167A (11723789_a_at) / RFU FAM26E (11764081_at) / Fold change /veh FAM26E (11764081_at) / RFU ISYNA1 (11749810_s_at) / Fold change /veh ISYNA1 (11749810_s_at) / RFU ACY1 (11761880_at) / Fold change /veh ACY1 (11761880_at) / RFU 11764098_at / Fold change /veh 11764098_at / RFU SAMD14 (11745864_x_at) / Fold change /veh SAMD14 (11745864_x_at) / RFU NPB (11741838_a_at) / Fold change /veh NPB (11741838_a_at) / RFU TMPRSS6 (11731388_a_at) / Fold change /veh TMPRSS6 (11731388_a_at) / RFU KRTAP10-2 (11738614_at) / Fold change /veh KRTAP10-2 (11738614_at) / RFU ARHGAP8 /// PRR5-ARHGAP8 (11727945_x_at) / Fold change /veh ARHGAP8 /// PRR5-ARHGAP8 (11727945_x_at) / RFU KRTAP5-7 /// NADSYN1 (11734609_at) / Fold change /veh KRTAP5-7 /// NADSYN1 (11734609_at) / RFU RASL12 (11751679_a_at) / Fold change /veh RASL12 (11751679_a_at) / RFU CDKN2B (11736163_a_at) / Fold change /veh CDKN2B (11736163_a_at) / RFU PRF1 (11729649_at) / Fold change /veh PRF1 (11729649_at) / RFU, ZNF638 /// ZNF638-IT1 / Fold change vs veh, ZNF638 /// ZNF638-IT1 / RFU, PANK3 / Fold change vs veh, PANK3 / RFU, SH3YL1 / Fold change vs veh, SH3YL1 / RFU, ZEB2 / Fold change vs veh, ZEB2 / RFU, NRIP1 / Fold change vs veh, NRIP1 / RFU, PTTG1IP / Fold change vs veh, PTTG1IP / RFU, CAPN2 / Fold change vs veh, CAPN2 / RFU, MED14 / Fold change vs veh, MED14 / RFU, SNORA58 / Fold change vs veh, SNORA58 / RFU, C1orf63 / Fold change vs veh, C1orf63 / RFU, LRRFIP1 / Fold change vs veh, LRRFIP1 / RFU, NDUFAF7 / Fold change vs veh, NDUFAF7 / RFU, SLC12A2 / Fold change vs veh, SLC12A2 / RFU, IBTK / Fold change vs veh, IBTK / RFU, ESF1 / Fold change vs veh, ESF1 / Fold change vs veh, TMEM50B / RFU, TAOK1 / Fold change vs veh, TAOK1 / RFU, ACBD3 / Fold change vs veh, ACBD3 / RFU, TMA16 / Fold change vs veh, TMA16 / RFU, RWDD3 / Fold change vs veh, RWDD3 / RFU, BCAT1 / Fold change vs veh, BCAT1 / RFU, EDEM3 / Fold change vs veh, EDEM3 / RFU, TMEM33 / Fold change vs veh, TMEM33 / RFU, WDR75 / Fold change vs veh, WDR75 / RFU, AHCTF1 / Fold change vs veh, AHCTF1 / RFU, TFRC / Fold change vs veh, TFRC / RFU, ZDHHC17 / Fold change vs veh, ZDHHC17 / RFU, NOM1 / Fold change vs veh, NOM1 / RFU, ARL8B / Fold change vs veh, ARL8B / RFU, ZBTB11 / Fold change vs veh, ZBTB11 / RFU, TAMM41 / Fold change vs veh, TAMM41 / RFU, KIAA1704 /// LOC100996395 / Fold change vs veh, KIAA1704 /// LOC100996395 / RFU, ING1 / Fold change vs veh, ING1 / RFU, TRMT61B / Fold change vs veh, TRMT61B / RFU, FUBP3 / Fold change vs veh, FUBP3 / RFU, TP53 / Fold change vs veh, TP53 / RFU, TNKS2 / Fold change vs veh, TNKS2 / RFU, ZFP14 / Fold change vs veh, ZFP14 / RFU, ACTR2 / Fold change vs veh, ACTR2 / RFU, PPP3R1 / Fold change vs veh, PPP3R1 / RFU, PIK3R1 / Fold change vs veh, PIK3R1 / RFU, HNRNPA1 / Fold change vs veh, HNRNPA1 / RFU, RNF170 / Fold change vs veh, RNF170 / RFU, ZNF28 / Fold change vs veh, ZNF28 / RFU, RNGTT / Fold change vs veh, RNGTT / RFU, OGT / Fold change vs veh, OGT / RFU, BRD1 / Fold change vs veh, BRD1 / RFU, MARS / Fold change vs veh, MARS / RFU, ZNF655 / Fold change vs veh, ZNF655 / RFU, FAHD1 / Fold change vs veh, FAHD1 / RFU, BDP1 / Fold change vs veh, BDP1 / RFU, LRRCC1 / Fold change vs veh, LRRCC1 / RFU, ARID1A / Fold change vs veh, ARID1A / RFU, ZNF146 / Fold change vs veh, ZNF146 / RFU, ZNF330 / Fold change vs veh, ZNF330 / RFU, GPN3 / Fold change vs veh, GPN3 / RFU, C9orf123 / Fold change vs veh, C9orf123 / RFU, N4BP2L2 / Fold change vs veh, N4BP2L2 / RFU, ARFIP1 / Fold change vs veh, ARFIP1 / RFU, FAM179B / Fold change vs veh, FAM179B / RFU, BCL10 / Fold change vs veh, BCL10 / RFU, UHRF1BP1L / Fold change vs veh, UHRF1BP1L / RFU, BET1 / Fold change vs veh, BET1 / RFU, CNOT2 / Fold change vs veh, CNOT2 / RFU, ZNF268 / Fold change vs veh, ZNF268 / Fold change vs veh, ZNF507 / RFU, DGCR2 / Fold change vs veh, DGCR2 / RFU, WDSUB1 / Fold change vs veh, WDSUB1 / Fold change vs veh, HSP90B1 /// MIR3652 / RFU, ADSS / Fold change vs veh, ADSS / RFU, GK / Fold change vs veh, GK / RFU, ZNF148 / Fold change vs veh, ZNF148 / RFU, TAF9 / Fold change vs veh, TAF9 / RFU, SLC1A5 / Fold change vs veh, SLC1A5 / RFU, SLMO2 / Fold change vs veh, SLMO2 / RFU, ABCC4 / Fold change vs veh, ABCC4 / RFU, LOC101060439 /// RAP1B / Fold change vs veh, LOC101060439 /// RAP1B / RFU, RFX7 / Fold change vs veh, RFX7 / RFU, GTPBP10 / Fold change vs veh, GTPBP10 / RFU, CNEP1R1 / Fold change vs veh, CNEP1R1 / RFU, BIVM-ERCC5 /// ERCC5 / Fold change vs veh, BIVM-ERCC5 /// ERCC5 / RFU, ILF3 / Fold change vs veh, ILF3 / RFU 11762660_at / Fold change /veh 11762660_at / RFU VCAN (11757783_s_at) / Fold change /veh VCAN (11757783_s_at) / RFU DDX43 (11728927_at) / Fold change /veh DDX43 (11728927_at) / RFU KRT8 (11758188_x_at) / Fold change /veh KRT8 (11758188_x_at) / RFU NKD1 (11759106_at) / Fold change /veh NKD1 (11759106_at) / RFU SRD5A1 (11742802_a_at) / Fold change /veh SRD5A1 (11742802_a_at) / RFU TPSAB1 /// TPSB2 (11721975_s_at) / Fold change /veh TPSAB1 /// TPSB2 (11721975_s_at) / RFU GSTM3 (11746129_a_at) / Fold change /veh GSTM3 (11746129_a_at) / RFU IL23R (11737362_x_at) / Fold change /veh IL23R (11737362_x_at) / RFU TMEM51 (11727254_a_at) / Fold change /veh TMEM51 (11727254_a_at) / RFU PIWIL2 (11732686_x_at) / Fold change /veh PIWIL2 (11732686_x_at) / RFU ORM1 (11744905_x_at) / Fold change /veh ORM1 (11744905_x_at) / RFU CCDC152 (11743942_at) / Fold change /veh CCDC152 (11743942_at) / RFU ECM1 (11717891_a_at) / Fold change /veh ECM1 (11717891_a_at) / RFU IL23R (11748794_a_at) / Fold change /veh IL23R (11748794_a_at) / RFU TNFAIP8L3 (11732012_x_at) / Fold change /veh TNFAIP8L3 (11732012_x_at) / RFU MBOAT4 (11741988_at) / Fold change /veh MBOAT4 (11741988_at) / RFU 11764193_at / Fold change /veh 11764193_at / RFU TMEM53 (11763286_at) / Fold change /veh TMEM53 (11763286_at) / RFU MAGEB2 (11727129_at) / Fold change /veh MAGEB2 (11727129_at) / RFU TMEM200A (11744735_a_at) / Fold change /veh TMEM200A (11744735_a_at) / RFU CCDC152 (11751479_a_at) / Fold change /veh CCDC152 (11751479_a_at) / RFU FAM211A (11726209_a_at) / Fold change /veh FAM211A (11726209_a_at) / RFU RGS16 (11746705_a_at) / Fold change /veh RGS16 (11746705_a_at) / RFU VCAN (11755009_s_at) / Fold change /veh VCAN (11755009_s_at) / RFU RHOB (11743442_s_at) / Fold change /veh RHOB (11743442_s_at) / RFU RGS16 (11720943_a_at) / Fold change /veh RGS16 (11720943_a_at) / RFU RGS16 (11720944_at) / Fold change /veh RGS16 (11720944_at) / RFU, VPS4B / Fold change vs veh, VPS4B / RFU, CREB1 / Fold change vs veh, CREB1 / RFU, DNAJC13 / Fold change vs veh, DNAJC13 / RFU, GNAQ / Fold change vs veh, GNAQ / RFU, CDK5R1 / Fold change vs veh, CDK5R1 / RFU, ZRANB3 / Fold change vs veh, ZRANB3 / RFU, CUL4A / Fold change vs veh, CUL4A / RFU, CCNY / Fold change vs veh, CCNY / RFU, UFL1 / Fold change vs veh, UFL1 / RFU, COG3 / Fold change vs veh, COG3 / RFU, DIAPH2 / Fold change vs veh, DIAPH2 / RFU, SKA2 / Fold change vs veh, SKA2 / RFU, AFF3 / Fold change vs veh, AFF3 / RFU, LMF1 / Fold change vs veh, LMF1 / RFU, IPO11 / Fold change vs veh, IPO11 / RFU, DFFB / Fold change vs veh, DFFB / RFU, FOXP1 / Fold change vs veh, FOXP1 / RFU, CARD8 / Fold change vs veh, CARD8 / RFU, STRN3 / Fold change vs veh, STRN3 / RFU, ADK / Fold change vs veh, ADK / RFU, RASSF2 / Fold change vs veh, RASSF2 / RFU, WIPF1 / Fold change vs veh, WIPF1 / RFU, LARP1B / Fold change vs veh, LARP1B / RFU, RASA1 / Fold change vs veh, RASA1 / RFU, RB1 / Fold change vs veh, RB1 / RFU, PPFIA1 / Fold change vs veh, PPFIA1 / RFU, MAT2A / Fold change vs veh, MAT2A / RFU, CCT5 / Fold change vs veh, CCT5 / RFU, WDR92 / Fold change vs veh, WDR92 / RFU, CUX1 / Fold change vs veh, CUX1 / RFU, TTC7A / Fold change vs veh, TTC7A / RFU, TMEM135 / Fold change vs veh, TMEM135 / RFU, DEPTOR / Fold change vs veh, DEPTOR / RFU, CPM / Fold change vs veh, CPM / RFU, DNAJB6 / Fold change vs veh, DNAJB6 / RFU, CACNA2D3 / Fold change vs veh, CACNA2D3 / RFU, DTX4 / Fold change vs veh, DTX4 / RFU, TFCP2 / Fold change vs veh, TFCP2 / RFU, GMCL1 /// GMCL1P1 / Fold change vs veh, GMCL1 /// GMCL1P1 / RFU, AEBP2 / Fold change vs veh, AEBP2 / RFU, SNHG1 /// SNORD22 /// SNORD25 /// SNORD26 /// SNORD27 /// SNORD28 /// SNORD29 /// SNORD31 / Fold change vs veh, SNHG1 /// SNORD22 /// SNORD25 /// SNORD26 /// SNORD27 /// SNORD28 /// SNORD29 /// SNORD31 / Fold change (Aza/veh), C12orf56 (ProbeSet 11735607_a_at) / Fold change (ACY-1035/veh), C12orf56 (ProbeSet 11735607_a_at) / Fold change (Aza/veh), FGFR1OP (ProbeSet 11751329_s_at) / Fold change (ACY-1035/veh), FGFR1OP (ProbeSet 11751329_s_at) / Fold change (Aza/veh), VPS36 (ProbeSet 11739960_a_at) / Fold change (ACY-1035/veh), VPS36 (ProbeSet 11739960_a_at) / RFU SYPL1 (11715823_x_at) / Fold change /veh SYPL1 (11715823_x_at) / RFU IGFBP7 (11715501_s_at) / Fold change /veh IGFBP7 (11715501_s_at) / RFU REEP3 (11722064_at) / Fold change /veh REEP3 (11722064_at) / RFU IGLL1 (11728026_x_at) / Fold change /veh IGLL1 (11728026_x_at): dose or concentration left out as unconfirmed
Conditions: ProbeSet 11731093_s_at; LIST B

Nc1ccc(-c2cccs2)cc1NC(=O)c1ccc2c(c1)cc(C1CC1)n2CCN1CCOCC1 [ACY-1035]
RFU, BRD1: 190.44 RFU
